Test results from paper PMC6270821, “ROS-Mediated Cytotoxic Effect of Copper(II) Hydrazone Complexes against Human Glioma Cells” (Molecules, 2014).

Legend:
[1] = test system: T98 (p53 mutant glioblastoma multiforme) cells; test: MTT cytotoxicity assay, T98 cells; assay type: cell-based, human; conditions: for IC50: MTT, 48 h treatment; for selectivity index (SI = IC50MRC5/IC50tumor cell), T98: T98 vs MRC5
Procedure: (§1) The in vitro cytotoxic effects of H2AcMe, H2BzMe and complexes 1 and 2 against wild type p53 U87 and mutant p53 T98 glioblastoma cells and against MRC-5 fibroblasts cells were tested using cisplatin as a positive control. To determine the IC50 (concentration that inhibits 50% of cell survival) values the cytotoxic effects were quantified using the 3-(4,5-dimethyl-2-thioazolyl)-2,5-diphenyl tetrazolium bromide (MTT) colorimetric assay. All tested compounds were cytotoxic against both glioma cell lines in a dose-dependent way. The IC50 values (see Table 1) were found in the micromolar range. Despite their cytotoxic activity, all compounds were less toxic to fibroblasts cells than cisplatin. CuCl2 evoked only mild cytotoxicity in all cell lineages with IC50 higher than 100 µM.
(§2) U87 (p53 wild-type glioblastoma multiforme) and T98 (p53 mutant glioblastoma multiforme) malignant human tumor cells and MRC5 (Human Fetal Lung Fibroblast) cells were obtained from the American Type Culture Collection (ATCC, Manassas, VA, USA). Cell lines were grown as monolayer in Dulbecco’s Modified Eagle’s Medium (DMEM, Gibco, Rockville, MD, USA), supplemented with 10% fetal bovine serum (Cultilab, Campinas, São Paulo, Brazil) and antibiotics (50 U/mL penicillin/50 […] streptomycin), in a humidified atmosphere air/CO2 (95%/5%) at 37 °C. Cells 80% confluents were used in all experiments. For all experiments, cells were seeded in 96-well plates, at a density of 1000 cells/well. After 24 h incubation cells were treated.
(§3) To determine the IC50 values the cytotoxic effects were quantified using the 3-(4,5-dimethyl-2-thioazolyl)-2,5-diphenyltetrazolium bromide (MTT) colorimetric assay. Briefly, cells were treated with increasing concentrations (10^−12, 10^−11, 10^−10, 10^−9, 10^−8, 10^−7, 10^−6, 10^−5, 10^−4 mol·L^−1) of either cisplatin (positive control) or test compounds (H2AcMe, H2BzMe, 1 and 2). The compounds were previously dissolved in dimethyl sulfoxide (DMSO) and the final concentrations were adjusted in DMEM in such manner that the final DMSO concentration was lower than 0.5%. Following 48 h treatment, MTT reagent was added to each well. Following another 4 h of incubation at 37 °C, DMSO was added to each well to dissolve formazan precipitate and absorbance was measured at 570 nm. Tests using DMSO (0.5% in DMEM) as negative control were carried out in parallel. All tests were performed in quadruplicates with full agreement between the results. Statistical analysis was carried out by the unpaired, one-tailed Student’s t testing using a p value of 0.05. A value of p < 0.05 was considered significant.

EB-CT-DNA = test: Competitive binding with EB bound to CT-DNA (fluorescence); parameters: species or system calf; conditions: for apparent binding constant Kapp (EB-CT-DNA): KEB 1.0 × 10^7 M^−1, [EB] = 10 µM; for number of binding sites n (EB-CT-DNA): Scatchard equation; for Stern-Volmer quenching constant Ksv (EB-CT-DNA) / binding constant K (EB-CT-DNA, Scatchard) / hypochromism in the EB-CT-DNA emission band at 602 nm: Tris-HCl pH 7.20, 25 °C; for hypochromism in the EB-CT-DNA emission band at 602 nm: complex up to 100 µM
Procedure: Steady-state competitive binding experiments using complexes 1 and 2were undertaken to get further proof for the binding of the complexes to DNA. The technique is based on the decrease of EB fluorescence resulting from the competitive displacement of EB from a DNA groove by a compound that competes for the same site.
The quenching data were analyzed by the Stern-Volmer equation: F0/F = Ksv[Q] + 1 (2) where F0 is the emission intensity in the absence of quencher, F is the emission intensity in the presence of quencher, Ksv is the quenching constant, and [Q] is the quencher concentration. The Ksv value is obtained as a slope from the plot of F0/F vs. [Q] [34].
The apparent binding constants (Kapp) were calculated from Equation (3): KEB [EB] = Kapp [complex] (3) where KEB is 1.0 × 10^7 M^−1, [EB] = 10 µM, and [complex] is the complex concentration when the fluorescence intensity of EB is 50%. This value is obtained from the plot F0/F vs. [complex] when F0/F = 2.
The binding constants (K) were calculated by the Scatchard Equation (4) (see Figure 6): log[(F0 − F)/F] = logK + nlog[Q] (4) where F0 and F are the fluorescence intensities of EB in the absence and presence of compound; [Q] is the compound concentration; K is the binding constant of compound with EB and n is the number of binding sites. K is the antilog of the intercept and n is the slope obtained from the plot of log[(F0 − F)/F] vs. […].
The affinity of the complexes for DNA was evaluated by a fluorescence technique using ethidium bromide (EB) bound to CT-DNA (EB-CT-DNA) solution in Tris-HCl buffer (pH = 7.20). EB is a planar cationic dye which is widely used as a sensitive fluorescence probe for native DNA. EB emits intense fluorescent light in the presence of DNA due to its strong intercalation between the adjacent DNA base-pairs. The changes in the fluorescence intensity at 602 nm (excitation at 545 nm) of EB-CT-DNA were measured with respect to the concentration of the copper(II) complexes. In fact, when it is removed, EB is non-emissive in Tris-HCl buffer solution (pH = 7.20), due to fluorescence quenching of the free EB by solvent molecules.

MRC5 cells = test: ROS generation, DCFH-DA assay, MRC5 cells; assay type: cell-based, human; conditions: 1 × 10^−5 mol/L, 24 h
Excerpt: To examine the effects of H2AcMe, H2BzMe and their complexes 1 and 2 on the generation of free radicals (reactive oxygen species, ROS), we used the 2',7'-dichlorodihydrofluorescein diacetate (DCFH-DA) assay.
ROS accumulation was detected using dichlorodihydrofluorescein diacetate (DCFH-DA, Sigma). DCFH-DA is a non-fluorescent compound, that when it is taken up by passive diffusion into the cells, is hydrolyzed by esterases to yield non-permeable DCFH. In the presence of ROS, DCFH is oxidized to the fluorescent DCF. Tumor cells were treated with the compounds for 24 h and were then incubated with DCFH-DA (1 × 10^−5 mol·L^−1) for 30 min at 37 °C. Following incubation, the cells were washed twice with PBS. Thereafter, the cells were observed under the fluorescent microscope Zeiss Axionplan coupled with a digital camera at excitation and emission wavelengths of 488 and 525 nm, respectively. Data were analyzed using ImageJ (ImageJ, National Institute of Health, Bethesda, MD, USA) and expressed as percentages of DCFDA fluorescence of the corresponding control.

[2] = test system: U87 (p53 wild-type glioblastoma multiforme) cells; test: MTT cytotoxicity assay, U87 cells; assay type: cell-based, human; conditions: for IC50: MTT, 48 h treatment; for selectivity index (SI = IC50MRC5/IC50tumor cell), U87: U87 vs MRC5
Procedure: as §1, §2, §3

| Structure (SMILES) | IC50 [1] [µM] | selectivity index (SI = IC50MRC5/IC50tumor cell), T98 [1] | apparent binding constant Kapp (EB-CT-DNA) (EB-CT-DNA) [M⁻¹] | number of binding sites n (EB-CT-DNA) (EB-CT-DNA) | Stern-Volmer quenching constant Ksv (EB-CT-DNA) (EB-CT-DNA) | binding constant K (EB-CT-DNA, Scatchard) (EB-CT-DNA) | hypochromism in the EB-CT-DNA emission band at 602 nm (EB-CT-DNA) | ROS levels in MRC5 cells compared with glioma cells (MRC5 cells) | IC50 [2] [µM] | selectivity index (SI = IC50MRC5/IC50tumor cell), U87 [2] |
| --- | --- | --- | --- | --- | --- | --- | --- | --- | --- | --- |
| CC(=O)NN=C(c1ccccc1)c1ccccn1.[Cl][Cu][Cl] [compound 2, [dichloro(2-benzoylpyridineacetylhydrazone)copper(II)]] | 29.4 ± 7.06 | 1.68 | 207000 | 0.81 ± 0.02 | (2.05 ± 0.03) × 10^3 M^−1 | (0.38 ± 0.01) × 10^3 M^−1 | ≤ 20% | lower levels of ROS in MRC5 than in T98 glioma cells | 5.95 ± 0.74 | 8.30 |
| CC(=O)NN=C(C)c1ccccn1.[Cl][Cu][Cl] [compound 1, [dichloro(2-acetylpyridineacetyl-hydrazone)copper(II)]] | 5.08 ± 0.41 | 4.42 | 234000 | 1.04 ± 0.01 | (2.35 ± 0.03) × 10^3 M^−1 | (0.35 ± 0.01) × 10^4 M^−1 | up to 24% | lower levels of ROS in MRC5 cells | 3.02 ± 0.85 | 7.45 |
